Measured values reported in patent US20060069132A1, “Azolecarboxamide herbicides” (priority 2004, published 2006).

Experiments:
velvetleaf [1] = test: Test A pre-/postemergence herbicide test; type: in vivo, Abutilon theophrasti
Method in brief: (§1)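 Visual injury scores on a 0–100 scale (100 = complete control) taken about ten days post-treatment in greenhouse against untreated controls; dash means no result. Treatments: preemergence soil spray and postemergence spray to runoff on one- to two-leaf plants 2 to 10 cm tall, surfactant-containing formulation.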

velvetleaf [2] = test: Test C pre-/postemergence herbicide test; type: in vivo, Abutilon theophrasti
Method in brief: (§2)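 Visual ratings on a 0–100 scale (100 = complete control) made versus untreated controls after 12 to 14 greenhouse days. Test chemicals, formulated in surfactant-containing non-phytotoxic solvent, applied preemergence to planted seeds or postemergence to 1- to 4-leaf plants (2 to 18 cm).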

cocklebur = test: Test C pre-/postemergence herbicide test; type: in vivo, Xanthium strumarium; conditions: for Plant response rating, Cocklebur: visual, 12 to 14 days
Method in brief: as §2

corn = test: Test C pre-/postemergence herbicide test; type: in vivo, Zea mays; conditions: for Plant response rating, Corn: visual, 12 to 14 days
Method in brief: as §2

barnyardgrass [3] = test: Test C flooded paddy test; type: in vivo, Echinochloa crus-galli
Method in brief: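 Greenhouse test with a 12–14 day hold after application and visual comparison with controls. Emerged plants were 1- to 4-leaf stage (2–18 cm) when sprayed postemergence, and the paddy barnyardgrass was at 2 leaves under flooded conditions. 100 = complete control.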

large crabgrass = test: Test C pre-/postemergence herbicide test; type: in vivo, Digitaria sanguinalis; conditions: for Plant response rating, Crabgrass, Large: visual, 12 to 14 days
Method in brief: as §2

redroot pigweed = test: Test A pre-/postemergence herbicide test; type: in vivo, Amaranthus retroflexus
Method in brief: as §1

rice = test: Test C flooded paddy test; type: in vivo, Oryza sativa
Method in brief: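 Injury scored visually against controls on a 0 (no effect) to 100 (complete control) scale, 12 to 14 days after treatment in greenhouse. Flooded paddy plants treated at 2-leaf stage; postemergence plants at 1- to 4-leaf stage, 2 to 18 cm tall.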

common ragweed = test: Test C pre-/postemergence herbicide test; type: in vivo, Ambrosia elatior; parameters: key to Plant response rating, Ragweed: 0 = no effect, 100 = complete control
Method in brief: as §2

eastern black nightshade = test: Test C pre-/postemergence herbicide test; type: in vivo, Solanum ptycanthum
Method in brief: as §2

barnyardgrass [4] = test: Test A pre-/postemergence herbicide test; type: in vivo, Echinochloa crus-galli
Method in brief: as §1

yellow nutsedge = test: Test C pre-/postemergence herbicide test; type: in vivo, Cyperus esculentus
Method in brief: as §2

ducksalad = test: Test C flooded paddy test; type: in vivo, Heteranthera limosa
[5] = Postemergence, 250 g ai/ha, 0 to 100 scale, 0 no effect, 100 complete control
[6] = Postemergence, 1000 g ai/ha, 0 to 100 scale, 0 no effect, 100 complete control
[7] = Preemergence, 1000 g ai/ha, visual rating, 0 to 100 scale (0 no effect, 100 complete control)
[8] = preemergence, 250 g ai/ha, visual injury, 0 to 100 scale (0 no effect, 100 complete control)
[9] = 125 g ai/ha, scale 0 (no effect) to 100 (complete control), visual, 12 to 14 days, preemergence
[10] = Preemergence, 500 g ai/ha, scale 0 to 100, 0 no effect, 100 complete control
[11] = 125 g ai/ha, scale 0 (no effect) to 100 (complete control), preemergence
[12] = 250 g ai/ha, scale 0 to 100 (0 no effect, 100 complete control), preemergence
[13] = 62 g ai/ha, scale 0 to 100 (0 no effect, 100 complete control)
[14] = 250 g ai/ha, scale of 0 to 100, 0 is no effect, 100 is complete control
[15] = 500 g ai/ha, visual rating after 12 to 14 days, scale 0 to 100 (0 no effect, 100 complete control)
[16] = 125 g ai/ha, scale 0 to 100 (0 no effect, 100 complete control)

CCn1nc(C(C)(C)C)cc1C(=O)Nc1cccc(S(=O)(=O)C(F)(F)F)c1 [Compound 134]
Velvetleaf plant response rating (velvetleaf [1]; [5]): 20
Plant response rating, Velvetleaf (velvetleaf [1]; [6]): 20
Velvetleaf plant response rating (velvetleaf [1]; [7]): 40
Velvetleaf plant response rating (velvetleaf [1]; [8]): 15
Plant response rating, Velvetleaf (velvetleaf [2]; [9]): 90
Velvetleaf plant response rating (velvetleaf [2]; [10]): 100
Plant response rating (0 = no effect, 100 = complete control), Cocklebur (cocklebur; 62 g ai/ha, preemergence): 0
Plant response rating, Cocklebur (cocklebur; [11]): 0
Plant response rating, Cocklebur (cocklebur; [12]): 0
Cocklebur plant response rating (cocklebur; [10]): 0
Plant response rating (0 = no effect, 100 = complete control), Corn (corn; 62 g ai/ha, preemergence): 0
Plant response rating, Corn (corn; [11]): 0
Plant response rating, Corn (corn; [12]): 0
Corn plant response rating (corn; [10]): 60
Barnyardgrass plant response rating (barnyardgrass [3]; [13]): 10
Barnyardgrass plant response rating (barnyardgrass [3]; 125 g ai/ha, scale of 0 to 100, 0 is no effect, 100 is complete control): 25
Barnyardgrass plant response rating (barnyardgrass [3]; [14]): 50
Plant response rating, Barnyardgrass (barnyardgrass [3]; [15]): 50
Plant response rating (0 = no effect, 100 = complete control), Crabgrass, Large (large crabgrass; 62 g ai/ha, preemergence): 65
Plant response rating, Crabgrass, Large (large crabgrass; [11]): 95
Plant response rating, Crabgrass, Large (large crabgrass; [12]): 95
Crabgrass, Large plant response rating (large crabgrass; [10]): 100
Pigweed plant response rating (redroot pigweed; [5]): 85
Plant response rating, Pigweed (redroot pigweed; [6]): 100
Pigweed plant response rating (redroot pigweed; [7]): 100
Pigweed plant response rating (redroot pigweed; [8]): 35
Rice plant response rating (rice; [13]): 35
Rice plant response rating (rice; [16]): 45
Rice plant response rating (rice; [14]): 55
Plant response rating, Rice (rice; [15]): 60
Plant response rating (0 = no effect, 100 = complete control), Ragweed (common ragweed; 62 g ai/ha, preemergence): 0
Plant response rating, Ragweed (common ragweed; [9]): 25
Ragweed plant response rating (common ragweed; [10]): 100
Plant response rating (0 = no effect, 100 = complete control), Nightshade (eastern black nightshade; 62 g ai/ha, preemergence): 90
Plant response rating, Nightshade (eastern black nightshade; [9]): 95
Nightshade plant response rating (eastern black nightshade; [10]): 100
Barnyardgrass plant response rating (barnyardgrass [4]; [5]): 30
Plant response rating, Barnyardgrass (barnyardgrass [4]; [6]): 70
Barnyardgrass plant response rating (barnyardgrass [4]; [7]): 45
Barnyardgrass plant response rating (barnyardgrass [4]; [8]): 25
Plant response rating (0 = no effect, 100 = complete control), Nutsedge, Yellow (yellow nutsedge; 62 g ai/ha, preemergence): 0
Plant response rating, Nutsedge, Yellow (yellow nutsedge; [9]): 0
Nutsedge, Yellow plant response rating (yellow nutsedge; [10]): 0
Ducksalad plant response rating (ducksalad; [13]): 45
Ducksalad plant response rating (ducksalad; [16]): 70
Ducksalad plant response rating (ducksalad; [14]): 90
Plant response rating, Ducksalad (ducksalad; [15]): 90
